Assay results published in PMC9558423 (Molecular nutrition & food research, 2020).
Like-named read-outs stand apart in the source and are kept apart here.

Details: for Qualitative Tmax (urine collection with greatest excretion): 12h urine collections, np = no peak; for Cmax (nmol excreted) / Tmax: urine; for Cmax (nmol excreted): mean ± SD; for Tmax: female, Sprague Dawley, rat, po

Compound | Qualitative Tmax (urine collection with greatest excretion) (High dose (1000 mg/kg bw)) | Cmax (nmol excreted) (High dose (1000 mg/kg bw)) | Qualitative Tmax (urine collection with greatest excretion) (Low dose (75 mg/kg bw)) | Cmax (nmol excreted) (Low dose (75 mg/kg bw)) | Qualitative Tmax (urine collection with greatest excretion) (Medium dose (350 mg/kg bw)) | Cmax (nmol excreted) (Medium dose (350 mg/kg bw)) | Tmax (350 mg/kg) | Tmax (1000 mg/kg) | Tmax (75 mg/kg) | Time of maximal urinary excretion after dosing (as stated in text/figure legend, doses not separated)
COc1ccc(CC(=O)O)cc1O [3-OH-4-OMe-PAA] | np | np | np | np | np | np |  |  |  | 
COc1ccc(CCC(=O)O)cc1O [3-OH-4-OMe-PPA, 3-hydroxy-4-methoxyphenylpropionic acid] | 12 to 24 h | 2.48 ± 2.69 nmol excreted | 0 to 12 h | 0.82 ± 0.58 nmol excreted | 12 to 24 h | 2.69 ± 1.83 nmol excreted |  |  |  | 
O=C(O)CNC(=O)c1cccc(O)c1 [3-OH-hippuric acid, 3-hydroxyhippuric acid] |  | 26.3 ± 7.6 nmol excreted | np | np |  | 31.8 ± 8.1 nmol excreted | 12 to 24 h | 12 to 24 h |  | 
O=C(O)Cc1ccc(O)cc1 [4-OH-PAA, 4-hydroxyphenylacetic acid] |  | 0.51 ± 0.16 nmol excreted |  | 0.30 ± 0.12 nmol excreted |  | 0.84 ± 0.38 nmol excreted | 0 to 24 h | 0 to 24 h | 0 to 24 h | 
O=C(O[C@@H]1O[C@H](C(=O)O)[C@@H](O)[C@H](O)[C@H]1O)c1ccccc1 [BzA glucuronide] | 12 to 24 h | 0.76 ± 0.17 nmol excreted | np | np | 12 to 24 h | 0.85 ± 0.17 nmol excreted |  |  |  | 
O=C(O)/C=C/c1ccc(O)c(O)c1 [Caffeic acid, caffeic acid] |  | 3.97 ± 1.38 nmol excreted | np | np |  | 3.18 ± 1.64 nmol excreted | 0 to 12 h | 0 to 12 h |  | 
O=C(/C=C/c1ccc(O)c(O)c1)O[C@@H]1C[C@](O)(C(=O)O)C[C@@H](O)[C@H]1O [Chlorogenic acid, chlorogenic acid] |  | 238 ± 67 nmol excreted | np | np |  | 66.1 ± 23.4 nmol excreted | 0 to 24 h | 0 to 12 h |  | 
OC[C@H]1O[C@@H](Oc2cc3c(O)cc(O)cc3[o+]c2-c2ccc(O)c(O)c2)[C@H](O)[C@@H](O)[C@H]1O [Cyanidin Galactoside] | 0 to 12 h | 0.46 ± 0.09 nmol excreted | np | np | 0 to 12 h | 0.19 ± 0.04 nmol excreted |  |  |  | 
OC[C@H]1O[C@@H](Oc2cc3c(O)cc(O)cc3[o+]c2-c2ccc(O)c(O)c2)[C@H](O)[C@@H](O)[C@@H]1O [Cyanidin Glucoside, cyanidin-3-O-glucoside] | 0 to 12 h | 0.22 ± 0.04 nmol excreted | np | np | 0 to 24 h | 0.11 ± 0.05 nmol excreted |  |  |  | 
OC[C@H]1O[C@@H](Oc2cc3c(O)cc(O)cc3[o+]c2-c2cc(O)c(O)c(O)c2)[C@H](O)[C@@H](O)[C@H]1O [Delphinidin Galactoside] | 0 to 12 h | 1.74 ± 0.22 nmol excreted | np | np | 0 to 12 h | 0.98 ± 0.20 nmol excreted |  |  |  | 
OC[C@H]1O[C@@H](Oc2cc3c(O)cc(O)cc3[o+]c2-c2cc(O)c(O)c(O)c2)[C@H](O)[C@@H](O)[C@@H]1O [Delphinidin Glucoside, delphindin-3-O-glucoside] | 0 to 24 h | 0.94 ± 0.22 nmol excreted | np | np | 0 to 24 h | 0.81 ± 0.14 nmol excreted |  |  |  | 
COc1cc(-c2[o+]c3cc(O)cc(O)c3cc2O[C@@H]2O[C@H](CO)[C@H](O)[C@H](O)[C@H]2O)cc(OC)c1O [Malvidin Galactoside, malvidin-3-O-galactoside] | 0 to 12 h | 14.2 ± 1.3 nmol excreted | np | np | 0 to 12 h | 7.36 ± 2.00 nmol excreted |  |  |  | ≤ 12 h
COc1cc(-c2[o+]c3cc(O)cc(O)c3cc2O[C@@H]2O[C@H](CO)[C@@H](O)[C@H](O)[C@H]2O)cc(OC)c1O [Malvidin Glucoside, malvidin-3-O-glucoside] | 0 to 12 h | 10.7 ± 0.9 nmol excreted | np | np | 0 to 12 h | 6.57 ± 0.57 nmol excreted |  |  |  | 
COc1cc(-c2[o+]c3cc(O)cc(O)c3cc2OC2OC(CO)C(O)C(O)C2O)cc(O)c1O (stereo not shown) [Petunidin Galactoside, petunidin-3-O-galactoside] | 0 to 12 h | 1.73 ± 0.38 nmol excreted | np | np | 0 to 12 h | 0.49 ± 0.23 nmol excreted |  |  |  | 
COc1cc(-c2[o+]c3cc(O)cc(O)c3cc2O[C@@H]2O[C@H](CO)[C@@H](O)[C@H](O)[C@H]2O)cc(O)c1O [Petunidin Glucoside, petunidin-3-O-glucoside] | 0 to 12 h | 0.94 ± 0.19 nmol excreted | np | np | 0 to 12 h | 0.37 ± 0.14 nmol excreted |  |  |  | 
O=c1c(O)c(-c2ccc(O)c(O)c2)oc2cc(O)cc(O)c12 [Quercetin, quercetin] |  | 11.5 ± 4.0 nmol excreted |  | 3.88 ± 1.46 nmol excreted |  | 10.1 ± 7.4 nmol excreted | 0 to 12 h | 0 to 12 h | 0 to 12 h | 
Caffeic acid sulfate | 0 to 12 h | 9.74 ± 0.78 nmol excreted | np | np | 0 to 12 h | 6.43 ± 4.57 nmol excreted |  |  |  | 
delphinidin sulfate | 0 to 24 h | 20.2 ± 2.4 nmol excreted | np | np | 0 to 24 h | 18.2 ± 2.4 nmol excreted |  |  |  | 
